# According to ChEMBL document CHEMBL4304806, “Triazolo-azepine Inhibitors of γ-Secretase and Their Methods of Use” (ACS Med Chem Lett, 2019):
# Molecular target: Gamma-secretase
# Assay: Inhibition of gamma secretase in human H4 cells over expressing human APP695 harboring K595N/M596L Swedish double mutant assessed as reduction in Abeta42 production level after 24 hrs by Alphalisa assay
# Type: cell-based
row,Structure (SMILES),IC50 [nM]
1,Cc1cn(C23CC(Nc4nc5n(n4)CCCC[C@H]5c4cc(F)cc(Cl)c4)(C2)C3)cn1,14
2,Cc1cn(C23CC(Nc4nc5n(n4)CCCC[C@@H]5c4ccc(F)cc4)(C2)C3)cn1,25
3,Cc1cn(C23CC(Nc4nc5n(n4)CCCC[C@H]5c4ccc(Cl)cc4)(C2)C3)cn1,23
4,Cc1cn(C23CCC(Nc4nc5n(n4)CCCC[C@H]5c4cc(F)cc(Cl)c4)(CC2)CC3)cn1,14
5,Cc1cn(C23CCC(Nc4nc5n(n4)CCCC[C@@H]5c4cc(F)cc(Cl)c4)(CC2)CC3)cn1,15
6,Cc1cn(C23CCC(Nc4nc5n(n4)CCCC[C@H]5c4ccc(F)c(F)c4)(CC2)CC3)cn1,49
7,Cc1cn(C23CC(Nc4nc5n(n4)CCCC[C@H]5c4ccc(F)c(F)c4)(C2)C3)cn1,27
8,Cc1cn(C23CC(Nc4nc5n(n4)CCCC[C@@H]5c4cc(F)cc(Cl)c4)(C2)C3)cn1,8
9,Cc1cn(C23CC(Nc4nc5n(n4)CCCC[C@H]5c4cccc(Cl)c4)(C2)C3)cn1,16
10,Cc1cn(C23CC(Nc4nc5n(n4)CCCC[C@@H]5c4ccc(F)c(F)c4)(C2)C3)cn1,44
11,Cc1cn(C23CC(Nc4nc5n(n4)CCCC[C@H]5c4ccc(F)cc4)(C2)C3)cn1,31
12,Cc1cn(C23CC(Nc4nc5n(n4)CCCC[C@@H]5c4ccc(Cl)cc4)(C2)C3)cn1,26
13,Cc1cn(C23CC(Nc4nc5n(n4)CCCC[C@@H]5c4cccc(Cl)c4)(C2)C3)cn1,15
14,Cc1cn(C23CCC(Nc4nc5n(n4)CCCC[C@@H]5c4ccc(F)c(F)c4)(CC2)CC3)cn1,39
